One test has as its target T1, LecB (Pseudomonas aeruginosa, UniProt Q9HYN5).
T1 construct: soluble lectin
Nature of the test: […] and CPMG NMR screening. The test is classed as binding. The note with it: fucosylated F-glycans as a group.

The next test concerns the target T2, BambL (Burkholderia ambifaria, UniProt Q0B4G1).
T2 construct: gene Bamb_5415; soluble lectin; 15N-labeled for TROSY
The test can be described thus: […] NMR titration (ligand-observed). The class given is binding.

For a further test, the target named is T3, Pmα23ST (Pasteurella multocida, UniProt Q15KI8).
T3 construct: gene Pm0188
T3 sequence (Q15KI8 26-412): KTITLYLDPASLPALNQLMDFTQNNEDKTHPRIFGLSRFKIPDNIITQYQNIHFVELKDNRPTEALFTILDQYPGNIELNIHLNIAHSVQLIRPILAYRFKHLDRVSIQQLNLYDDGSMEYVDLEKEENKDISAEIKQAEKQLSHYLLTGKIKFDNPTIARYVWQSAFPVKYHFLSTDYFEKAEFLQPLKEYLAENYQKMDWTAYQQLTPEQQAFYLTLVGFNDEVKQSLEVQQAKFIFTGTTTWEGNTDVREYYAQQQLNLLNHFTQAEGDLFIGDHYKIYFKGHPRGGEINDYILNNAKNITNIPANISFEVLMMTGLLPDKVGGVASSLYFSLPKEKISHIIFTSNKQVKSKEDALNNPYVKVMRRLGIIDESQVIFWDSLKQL
The test can be described thus: CPMG […] NMR screening. The note with it: without donor; also sialylated with CMP-Neu5Ac. The test is classed as binding.

For the next test, the target named is T4, Pdα26ST (Photobacterium damselae, UniProt O66375).
T4 construct: gene bst
T4 sequence (O66375 16-675): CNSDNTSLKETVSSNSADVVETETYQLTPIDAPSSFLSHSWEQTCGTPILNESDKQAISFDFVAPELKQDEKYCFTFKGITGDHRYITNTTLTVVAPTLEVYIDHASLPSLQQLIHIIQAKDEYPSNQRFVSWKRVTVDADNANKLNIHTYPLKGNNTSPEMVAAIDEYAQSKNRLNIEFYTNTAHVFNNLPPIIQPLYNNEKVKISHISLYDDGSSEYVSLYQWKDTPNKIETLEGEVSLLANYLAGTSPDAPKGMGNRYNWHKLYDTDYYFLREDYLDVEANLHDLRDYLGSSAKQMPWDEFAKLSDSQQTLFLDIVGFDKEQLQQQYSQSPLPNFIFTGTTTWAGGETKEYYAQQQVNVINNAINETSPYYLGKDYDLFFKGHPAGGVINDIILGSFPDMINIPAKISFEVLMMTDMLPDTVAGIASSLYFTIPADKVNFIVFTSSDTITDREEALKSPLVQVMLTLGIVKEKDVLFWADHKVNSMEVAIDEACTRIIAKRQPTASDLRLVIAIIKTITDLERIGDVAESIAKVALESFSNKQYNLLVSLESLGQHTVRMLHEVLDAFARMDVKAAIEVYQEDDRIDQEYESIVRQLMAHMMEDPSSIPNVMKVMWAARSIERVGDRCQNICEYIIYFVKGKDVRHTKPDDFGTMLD
The test can be described thus: CPMG […] NMR screening. The class given is binding. The note with it: without donor CMP-Neu5Ac.

For a further test, the system named is β‐galactosidase. Nature of the test: real-time […] NMR of product formation. The test is classed as biochemical. The note with it: Henry-Michaelis-Menten fit.

T2 sequence (Q0B4G1 entry or part of it): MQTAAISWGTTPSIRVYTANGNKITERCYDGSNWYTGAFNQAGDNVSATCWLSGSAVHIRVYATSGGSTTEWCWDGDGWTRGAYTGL
T1 sequence (Q9HYN5 entry or part of it): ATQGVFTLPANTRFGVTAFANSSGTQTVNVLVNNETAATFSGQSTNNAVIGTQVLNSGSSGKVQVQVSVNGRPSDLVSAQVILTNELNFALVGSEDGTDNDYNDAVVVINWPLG

What is called Kd is the equilibrium constant for the complex coming apart. Low readings indicate a tighter complex, high ones a looser complex. Turning to `CC(=O)N[C@H]1[C@H](O[C@H]2[C@@H](O)[C@@H](CO)O[C@@H](O[C@H]3[C@H](F)[C@@H](O)[C@H](OCCCCCN)O[C@@H]3CO)[C@@H]2O)O[C@H](CO)[C@@H](O[C@@H]2O[C@H](CO)[C@H](O)[C@H](O)[C@H]2O[C@@H]2O[C@@H](C)[C@@H](O)[C@@H](O)[C@@H]2O)[C@@H]1O` [F‐H type 2], the “19F and CPMG NMR screening” value at LecB was “bacterial (LecA, LecB, and BambL) and mammalian (DC‐SIGN ECD) lectins preferred fucosylated glycans”. This molecule also displayed a Kd on BambL of 9 ± 2 µM.

The molecule `CC(=O)N[C@H]1[C@H](O[C@H]2[C@@H](O)[C@@H](CO)O[C@@H](O[C@H]3[C@H](F)[C@@H](O)[C@H](OCCCCCN)O[C@@H]3CO)[C@@H]2O)O[C@H](CO)[C@@H](O[C@@H]2O[C@H](CO)[C@H](O)[C@H](O)[C@H]2O[C@@H]2O[C@@H](C)[C@@H](O)[C@@H](O)[C@@H]2O)[C@@H]1O[C@@H]1O[C@@H](C)[C@@H](O)[C@@H](O)[C@@H]1O` [F‐Le^y] registered a Kd at BambL of 14 ± 2 µM.

On to `CC(=O)N[C@H]1[C@H](O[C@H]2[C@@H](O)[C@@H](CO)O[C@@H](O[C@H]3[C@H](F)[C@@H](O)[C@H](OCCCCCN)O[C@@H]3CO)[C@@H]2O)O[C@H](CO)[C@@H](O[C@@H]2O[C@H](CO)[C@H](O)[C@H](O)[C@H]2O)[C@@H]1O` [F‐nLac4], for which the “CPMG 19F NMR screening” value at Pmα23ST is “Shorter non‐branched glycans (F‐Lac and F‐nLac4) showed stronger binding than longer branched ones”; on Pdα26ST, “Shorter non‐branched glycans (F‐Lac and F‐nLac4) showed stronger binding than longer branched ones”.

The term Km denotes the substrate concentration at which the rate is half of its maximum. Consider `NCCCCCO[C@@H]1O[C@H](CO)[C@@H](O[C@@H]2O[C@H](CO)[C@H](O)[C@H](O)[C@H]2O)[C@H](F)[C@H]1O` [F‐Lac], for which the “CPMG 19F NMR screening” value on Pdα26ST was “Shorter non‐branched glycans (F‐Lac and F‐nLac4) showed stronger binding than longer branched ones”. For the same molecule, the Michaelis-Menten constant (Km) in the test with β‐galactosidase was 86.5 ± 10.5 µM.

The record behind these values is publication PMC8252726, “Automated Glycan Assembly of ^19F‐labeled Glycan Probes Enables High‐Throughput NMR Studies of Protein–Glycan Interactions” (Angewandte Chemie (International Ed. in English), 2021).
